Data on 4 compounds can be found in patent publication US20100041662A1, “Heterocyclic compounds as antiinflammatory agents” (priority 2006, published 2010).

Series [1] relates to Phospho-PKB in U87MG cells. The experiment in a line: Detection of phospho-PKB in U87MG cells by ELISA. It is filed as cell-based. The conditions noted are these: Homo sapiens, U-87 MG; assay not given; follows the PI3K/DNA-PK/phospho-PKB U87MG methods. How it is done:
U87MG cells (human glioblastoma, ATCC No. HTB-14) are trypsinized, counted in a CASY cell counter (Schärffe systems, Göttingen, Germany), diluted in fresh complete DMEM high glucose medium to load, per well, 150 μL cell suspension containing 4×10^4 cells, and test plates incubated for 18 hours. In parallel, 50 μL of coating antibody, at the desired concentration in PBS/O is loaded in each well of the ELISA plates, and plates are kept for 2 hours at room temperature. This ELISA assays is performed in black flat-bottom 96-well plates (Microtest™, Falcon Becton-Dickinson, Ref.: 353941) sealed with Plate Sealers (Costar-Corning, Ref: 3095). Medium in plates is discarded and replaced by complete DMEM high glucose medium containing either 0.1% DMSO or 0.1% inhibitor at titers (7) between […] in DMSO. After 30 minutes of contact, the medium is quickly removed by aspiration, plates are then placed on ice and immediately cells lyzed with 70 μL of Lysis buffer. In parallel, the 96 wells plates prepared with the coating antibody (1/250 diluted (in PBS/O) Anti-Akt1 C-20, goat, Santa-Cruz-1618, Santa Cruz Biotechnology, Inc., Santa Cruz, Calif., USA) are washed 3 times for 1 minute with PBS/O containing 0.05% Tween 20 and 0.1% Top-Blocks (derivative of gelatine that blocks unspecific binding sites on surfaces; Sigma-Aldrich, Fluka, Buchs, Switzerland, Ref.: 37766), and remaining protein binding sites blocked to prevent non-specific interactions with 200 μL of PBS containing 3% Top Block®, for 2 hours at room temperature. Well content is replaced with 50 μL of samples from treated cells, and plates are incubated for 3 hours at 4° C. The ELISA assays are always done in parallel with the following controls, in 6 replicates: U87MG (untreated control) or Lysis buffer alone (LB). […] The luminescence is read immediately on a Top-Count NXT (Packard Bioscience) luminometer.
In general terms: An ELISA detects its analyte on a solid surface through an enzyme-linked reagent.

For series [2], the system named is dimethylnitrosamine induced liver fibrosis. The settings on record: cited from earlier work.
Where [3] appears, read: given therapeutically to rat, 3 weeks treatment.

In series [1], `OC1CCC(Nc2ccc3ncc(-c4ccc(-n5cccn5)cc4)n3n2)CC1` (stereo not drawn) [Example 1.5, 4-[3-(4-Pyrazol-1-yl-phenyl)-imidazo[1,2-b]pyridazin-6-ylamino]-cyclohexanol] displayed an IC50 of 106 nM.

In series [1], `OC1CCC(Nc2ccc3ncc(-c4ccc(-n5cncn5)cc4)n3n2)CC1` (stereo not drawn) [Example 1.8, 4-[3-(4-[1,2,4]Triazol-1-yl-phenyl)-imidazo[1,2-b]pyridazin-6-ylamino]-cyclohexanol] came in with an IC50 of 666 nM. Against the preceding compound, the IC50 is about 6.3-fold higher.

Compound `OCC1CCC(Nc2ccc3ncc(-c4ccc(-n5cccn5)cc4)n3n2)CC1` (stereo not drawn) [Example 1.9, {4-[3-(4-Pyrazol-1-yl-phenyl)-imidazo[1,2-b]pyridazin-6-ylamino]-cyclohexyl}-methanol] had an IC50 in series [1] of 753 nM.

For `c1ccc(-c2cc(-c3cn[nH]c3-c3ccccn3)ccn2)cc1` [GW6604], the side effects result in series [2] (during the 3 weeks treatment) is “no obvious side effects”. For the same compound, in series [2] (setting [3]), the “inhibited extracellular matrix deposition” value is reported as 60% and the prevented death rate was 40%.

Broadly, the IC50 is the midpoint of a concentration-inhibition curve.
